The values below come from article PMC10046961, “High-Throughput Screening Assay for Detecting Drug-Induced Changes in Synchronized Neuronal Oscillations and Potential Seizure Risk Based on Ca^2+ Fluorescence Measurements in Human Induced Pluripotent Stem Cell (hiPSC)-Derived Neuronal 2D and 3D Cultures” (Cells, 2023).

Assay [1] concerns hiPSC-derived neurons co-cultured with human primary astrocytes in 3D. Nature of the assay: Ca2+ transient oscillation assay (FDSS), 3D spheroids. It counts as cell-based. The settings on record: for Area under the curve - 3D Mean / Peak Number—3D Mean / Peak width - 3D Mean / Peak-to-peak interval - 3D Mean: 60 min. The source says: (§1) In this study, we used cryopreserved excitatory neurons that were differentiated from human induced pluripotent stem cells (hiPSCs; Cat #: EX-SeV-CW50065) (Elixirgen Scientific, Inc., Baltimore, MD, USA). The hiPSCs used, namely, CW50065 were derived from a healthy person and distributed by the California Institute of Regenerative Medicine Human Induced Pluripotent Stem Cell Repository. Human iPSC-derived excitatory neurons were differentiated from CW50065 using a proprietary cocktail of differentiation-inducing factors called Quick-Neuron™ EX-SeV (Batch number: EX-SeV-CW50065-L; Elixirgen Scientific, Inc.), cryopreserved 3 days after differentiation induction and distributed. Human iPSC-derived excitatory neurons were recovered from cryopreservation and maintained essentially as instructed by the manufacturer.
(§2) Cryopreserved human primary astrocytes (#N7805100, Thermo Fisher Scientific, Waltham, MA, USA) were recovered as instructed by the manufacturer and seeded in a 10 cm dish at the density of 2,000,000 cells. The culture was maintained using the Human Astrocytes Kit (#N7805200, Thermo Fisher Scientific) for 12 days. Half of the culture medium was replaced with fresh medium every 2–3 days during the culture period. These astrocytes were harvested using StemPro™ Accutase™ Cell Dissociation Reagent (#A1110501, Thermo Fisher Scientific) when they reached confluency. These cells were cryopreserved in STEM-CELLBANKER® GMP grade (ZENOGEN PHARMA, Kohriyama, Fukushima Japan) at the density of 2,000,000 cells per vial as working stocks for co-culture with neurons in 2D and 3D conditions described below. After a working stock was recovered, astrocytes were directly mixed with hiPSC-derived neurons for plating without further expansion.
We used U-shaped-bottom 96-well plates (#174925, Thermo Fisher Scientific) without any prior coating to make a spheroid in each well. Neurons and astrocytes were seeded and maintained as described for 2D cultures, except for the following modifications. First, neurons and astrocytes were seeded in each well of the 96-well plates at the density of 8000 hiPSC neurons with 8000 human primary astrocytes (8000)/well (ratio 1:1). Second, when the differentiation of excitatory neurons was completed one week after seeding, cells were fed with BrainPhys^TM Neuronal Medium (#05793, […] Technologies, Vancouver, BC, Canada) supplemented with 2% SM1 Neuronal Supplement, 1% N2 Supplement-A, and 10% Neuron culture medium for 5 weeks.
Cells maintained as spheroids (3D) in the U-shaped-bottom 96-well plates were transferred into 384-well spheroid plates (#4516, Merck, Corning, NY, USA) with 25 µL of the culture medium. A Ca^2+-indicating dye solution including […] was prepared using the EarlyTox™ Cardiotoxicity Kit (#R8211, Molecular Devices, LLC, San Jose, CA, USA) according to the manufacturer. Then, the same volume of the dye solution was dispensed into each well.
(§3) Prior to the fluorescence measurements, all wells to be measured were treated with 0.04% dimethyl sulfoxide (DMSO) to stabilize the oscillation signal. The first recording started 10 min after the addition of DMSO for each plate for 20 min. The effects of the test compound were recorded again starting 60 min after the administration of compounds, for 20 min.
Twenty-five compounds (Table 1) were first dissolved in either DMSO (most compounds) or distilled water depending on the compound, and further diluted with PBS to produce stock solutions concentrated 10-fold. Then, 5 μL of each compound solution was injected into each well using an automatic pipetting robot (#4505, ASSIST PLUS pipetting robot, Integra Biosciences Corp., Hudson, NH, USA), so that the final concentration of each compound was 1-fold nominal in the well.

Assay [2] relates to hiPSC-derived neurons co-cultured with human primary astrocytes in 2D. Nature of the assay: Ca2+ transient oscillation assay (FDSS), 2D co-culture. The class given is cell-based. The settings on record: for effect on peak number / Ca2+ neuronal oscillations, in words: 2D format; for activation at 0.37 µM / activation at 1.11 µM / activation at 3.33 µM / activation at 10 µM: Homo sapiens, 1 h.
Excerpt: as §1, §2
Live neurons (hiPSC neurons) and human primary astrocytes were recovered from cryopreservation as described above and seeded in each well of 384-well plates at the density of 10,000 cells (HiPSC-cortical neurons) and human primary astrocytes at 2500 cells (ratio 4:1). These co-cultures were maintained under the medium conditions recommended by the manufacturer, namely Medium N(G2P), to complete the differentiation of excitatory neurons for the first week. […] Half of the culture medium was replaced with fresh medium every 3–4 days during the culture period.
After the incubation, the culture medium containing Cal-520 was replaced with 50 μL of HBSS supplemented with 0.1 mM MgCl2, 2 mM CaCl2, 10 mM HEPES, and 10 mM glucose and incubated at 37 ℃ for 15 min.
as §3
Twenty-five compounds (Table 1) were first dissolved in either DMSO (most compounds) or distilled water depending on the compound, and further diluted with PBS to produce stock solutions concentrated 10-fold. […] The final concentration of DMSO was adjusted to 0.1%. Changes in the fluorescence intensity (FI) produced by Ca^2+ flux were measured at 37 °C for all wells of a 384-well plate simultaneously using the FDSS/µCell system (#C13299, Hamamatsu Photonics, Hamamatsu, Shizuoka, Japan). The excitation and the emission wavelengths were 470 nm and 540 nm, respectively. The recording duration was 20 min with a sampling frequency of 2 Hz for cells cultured under 2D conditions and 10 Hz for cells cultured under 3D conditions.

Where [3] appears, read: symbol, based on % changes of baseline value in the peak number, concentration in parentheses in same cell.
[4] abbreviates: read-out: Area under the curve - 2D Mean.
Setting [5] is: read-out: Peak amplitude - 2D Mean.
Setting [6] is: read-out: Peak-to-peak interval - 2D Mean.

The structures appear in SMILES notation. Where two headings read alike, the source gives them in different places. Marks after values point to notes of the source that are not given here.

With `CN1CCc2cc3c(cc2[C@H]1[C@@H]1OC(=O)c2c1ccc1c2OCO1)OCO3` [Bicuculline], the “Area under the curve - 3D Mean” value in assay [1] (0.37 µM) came to 105.2 % change from baseline; in assay [1] (1.11 µM), 108.3 % change from baseline; in assay [1] (3.33 µM), 107.4 % change from baseline; in assay [1] (10 µM), 115.2 % change from baseline. The “Peak Number—3D Mean” value is listed as −14.9 % change from baseline in assay [1] (0.37 µM), −13.0 % change from baseline in assay [1] (1.11 µM), 5.8 % change from baseline in assay [1] (3.33 µM) and −5.8 % change from baseline in assay [1] (10 µM). Also, the “Peak width - 3D Mean” value is on record as −0.3 % change from baseline in assay [1] (0.37 µM), 5.7 % change from baseline in assay [1] (1.11 µM), 2.7 % change from baseline in assay [1] (3.33 µM) and 8.5 % change from baseline in assay [1] (10 µM). Moreover, the “Peak-to-peak interval - 3D Mean” value is reported as 7.6 % change from baseline in assay [1] (0.37 µM), 20.3 % change from baseline in assay [1] (1.11 µM), 12.1 % change from baseline in assay [1] (3.33 µM) and 9.4 % change from baseline in assay [1] (10 µM). Besides, the “effect on peak number of oscillations, in words” value in assay [1] (3D-cultured) is on record as “did not significantly change the peak number”. Further, the “Ca²⁺ Transient Peak Number (3D)” value in assay [1] (setting [3]) was “±”. In addition, the “effect on peak number / Ca2+ neuronal oscillations, in words” value in assay [2] is recorded as “significantly reduced peak number”. The activation at 0.37 µM in assay [2] (setting [4]) is 15.8%; in assay [2] (read-out: Peak Number—2D Mean), -29.4%; in assay [2] (setting [5]), -4.1%; in assay [2] (read-out: Peak width - 2D Mean), 16.1%; in assay [2] (setting [6]), -17.2%. The activation at 1.11 µM in assay [2] (setting [4]) is 39.6%; in assay [2] (read-out: Peak Number—2D Mean), -3.5%; in assay [2] (setting [5]), 9.3%; in assay [2] (read-out: Peak width - 2D Mean), 33%; in assay [2] (setting [6]) it was 8.2%. The activation at 3.33 µM was 1.6% in assay [2] (setting [4]); 9.9% in assay [2] (read-out: Peak Number—2D Mean); -14.1% in assay [2] (setting [5]); 3.7% in assay [2] (read-out: Peak width - 2D Mean); -26.1% in assay [2] (setting [6]). Also, the activation at 10 µM in assay [2] (setting [4]) was 22.8%; in assay [2] (read-out: Peak Number—2D Mean), 5.8%; in assay [2] (setting [5]) it was 9.8%; in assay [2] (read-out: Peak width - 2D Mean), 11.5%; in assay [2] (setting [6]), -13.2%. Also, the “Ca²⁺ Transient Peak Number (2D)” value in assay [2] (setting [3]) is listed as “±”.
As for `C=C(C)[C@H]1CN[C@H](C(=O)O)[C@H]1CC(=O)O` [Kainic Acid], the “Area under the curve - 3D Mean” value is given as 120.5 % change from baseline in assay [1] (0.37 µM), 141.9 % change from baseline in assay [1] (1.11 µM), 174.3 % change from baseline in assay [1] (3.33 µM) and 58.3 % change from baseline in assay [1] (10 µM). For the same compound, the “Peak Number—3D Mean” value in assay [1] (0.37 µM) was 1.3 % change from baseline; in assay [1] (1.11 µM), 16.4 % change from baseline; in assay [1] (3.33 µM) it was 18.7 * % change from baseline; in assay [1] (10 µM), 102.8 ** % change from baseline. Moreover, the “Peak width - 3D Mean” value is recorded as 4.9 % change from baseline in assay [1] (0.37 µM), 10.6 % change from baseline in assay [1] (1.11 µM), 41.9 % change from baseline in assay [1] (3.33 µM) and −20.1 % change from baseline in assay [1] (10 µM). The “Peak-to-peak interval - 3D Mean” value in assay [1] (0.37 µM) is on record as 0.2 % change from baseline; in assay [1] (1.11 µM), −16.0 % change from baseline; in assay [1] (3.33 µM), −13.0 % change from baseline; in assay [1] (10 µM), −45.2 % change from baseline. For the same compound, the “response of positive controls on Ca2+ transient oscillations” value is listed as “significant responses” in assay [1] (3D, 4-AP 30 µM, kainic acid 100 µM) and “significant responses” in assay [2] (2D, 4-AP 30 µM, kainic acid 100 µM). The “change of Ca2+ neuronal oscillations (Figure 1)” value in assay [2] (4-AP at 30 µM, kainic acid at 10 µM) is reported as “inhibition”. The activation at 0.37 µM in assay [2] (setting [4]) is 32.3%; in assay [2] (read-out: Peak Number—2D Mean) it was 21%; in assay [2] (setting [5]) it was 11.8%; in assay [2] (read-out: Peak width - 2D Mean), 22%; in assay [2] (setting [6]) it was -1.2%. In addition, the activation at 1.11 µM in assay [2] (setting [4]) was 25.2%; in assay [2] (read-out: Peak Number—2D Mean) it was 26.8%; in assay [2] (setting [5]), -2.2%; in assay [2] (read-out: Peak width - 2D Mean) it was 37.4%; in assay [2] (setting [6]) it was -19.6%. The activation at 3.33 µM in assay [2] (setting [4]) was -48.2%; in assay [2] (read-out: Peak Number—2D Mean) it was -53.3%; in assay [2] (setting [5]), -55%; in assay [2] (read-out: Peak width - 2D Mean) it was -23%; in assay [2] (setting [6]), -53%. The activation at 10 µM in assay [2] (setting [4]), in assay [2] (read-out: Peak Number—2D Mean), in assay [2] (setting [5]), in assay [2] (read-out: Peak width - 2D Mean) and in assay [2] (setting [6]) was -100% throughout.
As for `NCC(=O)O` [glycine], the “effect on peak number / Ca2+ neuronal oscillations, in words” value in assay [2] is recorded as “significantly reduced peak number”.
On the same count and under the same terms, under `NC[C@H](O)c1ccc(O)c(O)c1` [norepinephrine] stands “significantly reduced peak number”.
